Data as given in BigSolDB 2.1.

CC1(C)[C@@H](O)CC[C@]2(C)[C@H]3C(=O)C=C4[C@@H]5C[C@@](C)(C(=O)O)CC[C@]5(C)CC[C@@]4(C)[C@]3(C)CC[C@@H]12
solubility (mole fraction) (in 1,4-dioxane, 288.15 K): 0.0277
solubility (mole fraction) (in 1,4-dioxane, 293.15 K): 0.0286
solubility (mole fraction) (in 1,4-dioxane, 298.15 K): 0.0298
solubility (mole fraction) (in 1,4-dioxane, 303.15 K): 0.031
solubility (mole fraction) (in 1,4-dioxane, 308.15 K): 0.0323
solubility (mole fraction) (in 1,4-dioxane, 313.15 K): 0.0335
solubility (mole fraction) (in 1,4-dioxane, 318.15 K): 0.0348
solubility (mole fraction) (in 1,4-dioxane, 323.15 K): 0.0366
solubility (mole fraction) (in DMF, 278.15 K): 0.0449
solubility (mole fraction) (in DMF, 283.15 K): 0.0478
solubility (mole fraction) (in DMF, 288.15 K): 0.051
solubility (mole fraction) (in DMF, 293.15 K): 0.0545
solubility (mole fraction) (in DMF, 298.15 K): 0.058
solubility (mole fraction) (in DMF, 303.15 K): 0.0615
solubility (mole fraction) (in DMF, 308.15 K): 0.0654
solubility (mole fraction) (in DMF, 313.15 K): 0.0692
solubility (mole fraction) (in DMF, 318.15 K): 0.0733
solubility (mole fraction) (in DMF, 323.15 K): 0.0777
solubility (mole fraction) (in ethanol, 278.15 K): 0.0109
solubility (mole fraction) (in ethanol, 283.15 K): 0.0115
solubility (mole fraction) (in ethanol, 288.15 K): 0.0121
solubility (mole fraction) (in ethanol, 293.15 K): 0.0128
solubility (mole fraction) (in ethanol, 298.15 K): 0.0134
solubility (mole fraction) (in ethanol, 303.15 K): 0.0141
solubility (mole fraction) (in ethanol, 308.15 K): 0.0147
solubility (mole fraction) (in ethanol, 313.15 K): 0.0155
solubility (mole fraction) (in ethanol, 318.15 K): 0.0163
solubility (mole fraction) (in ethanol, 323.15 K): 0.0172
solubility (mole fraction) (in isopropanol, 278.15 K): 0.00911
solubility (mole fraction) (in isopropanol, 283.15 K): 0.00991
solubility (mole fraction) (in isopropanol, 288.15 K): 0.0108
solubility (mole fraction) (in isopropanol, 293.15 K): 0.0116
solubility (mole fraction) (in isopropanol, 298.15 K): 0.0124
solubility (mole fraction) (in isopropanol, 303.15 K): 0.0133
solubility (mole fraction) (in isopropanol, 308.15 K): 0.0142
solubility (mole fraction) (in isopropanol, 313.15 K): 0.0151
solubility (mole fraction) (in isopropanol, 318.15 K): 0.016
solubility (mole fraction) (in isopropanol, 323.15 K): 0.017
solubility (mole fraction) (in water, 278.15 K): 8.02e-08
solubility (mole fraction) (in water, 283.15 K): 9.91e-08
solubility (mole fraction) (in water, 288.15 K): 1.22e-07
solubility (mole fraction) (in water, 293.15 K): 1.5e-07
solubility (mole fraction) (in water, 298.15 K): 1.82e-07
solubility (mole fraction) (in water, 303.15 K): 2.2e-07
solubility (mole fraction) (in water, 308.15 K): 2.61e-07
solubility (mole fraction) (in water, 313.15 K): 3.17e-07
solubility (mole fraction) (in water, 318.15 K): 3.76e-07
solubility (mole fraction) (in water, 323.15 K): 4.49e-07
